Measurements taken from patent US10532075B2, “Use of a particular extract of propolis for combating the side effects of chemotherapy” (POLLENERGIE, priority 2014, dated 2020).

Tests used:
[1] = system: plasmatic glutathione (GSH); experiment: in-vivo side effects of chemotherapy: plasmatic glutathione
Excerpt: (§1) Wistar rats of approximately 200 g were used during this in-vivo experiment, at a rate of 8 animals per group. […] The animals are sacrificed 21 days after the injection of the chemotherapy agent. The weight and the different parameters of the blood formula will be tracked in these animals on days D+1, D+6 and D+14 and D+21 post-chemotherapy injection. The contents of endogenic antioxidants (glutathione=GSH) and the hepatocytic lipid peroxidation (MDA) levels will be evaluated on D+21.
(§2) The chemotherapy agents also have an impact on the primary intracellular antioxidant: glutathione (GSH) and on oxidative damage through the formation of diene conjugates, which is a reflection of the lipid peroxidation of the cellular membranes (the MDA) on the plasmatic level. These two measurements are complementary since normally a correct level of GSH makes it possible to maintain a relatively low level of MDA.

plasmatic creatinine = experiment: in-vivo side effects of chemotherapy: plasmatic creatinine
Excerpt: as §1

red blood cells = experiment: in-vivo side effects of chemotherapy: change in red blood cells
Excerpt: as §1

[2] = in-vivo side effects of chemotherapy: change in weight of the animals
Excerpt: as §1

plasma MDA = experiment: in-vivo side effects of chemotherapy: plasma MDA
Excerpt: as §1, §2

white blood cells = experiment: in-vivo side effects of chemotherapy: change in white blood cells
Excerpt: as §1

[3] = system: Primary hepatocytes of rats; experiment: reversion of chemotherapy agent toxicity: hepatocyte cytolysis after propolis pretreatment, then tamoxifen; type: cell-based; details: tamoxifen alone
Method: Primary hepatocytes of rats were sampled and inoculated into a 96-well plate. 24 hours after the inoculation, the hepatocytes were treated with different doses of propolis (Example 1) for 24 hours.
The percentage of hepatic cells that are cytolyzed after a pretreatment with different concentrations of propolis and then subjected to a cytotoxic concentration of tamoxifen (25 μM) was evaluated and presented in the table below: […]

[4] = chemotherapy agent alone, 21st day
[5] = chemotherapy agent alone, D + 21 post-injection
[6] = chemotherapy agent alone, D − 5 (before treatment)
[7] = chemotherapy agent alone, D + 1 post-injection
[8] = chemotherapy agent alone, 21st day post-injection
[9] = chemotherapy agent alone, D + 6 post-injection
[10] = chemotherapy agent alone, D + 14 post-injection

SMILES: O=P1(N(CCCl)CCCl)NCCCO1 (stereo not shown) [Cyclophosphamide, cyclophosphamide]
- plasmatic glutathione: Variation between D − 5 and D + 21 ([1]; chemotherapy agent alone): −10%
- effect on the level of plasma GSH (in words) [1, 4]: a little less distinct
- plasmatic glutathione [1, 5]: 23.81
- plasmatic glutathione [1, 6]: 26.39
- plasmatic creatinine: Variation between D − 5 and D + 21 (plasmatic creatinine; chemotherapy agent alone): +59%
- plasmatic creatinine (plasmatic creatinine; [7]): 7.25
- plasmatic creatinine (plasmatic creatinine; [5]): 10.14
- plasmatic creatinine (plasmatic creatinine; [6]): 6.38
- red blood cells: Variation between D + 1 and D + 21 (red blood cells; chemotherapy agent alone): −46%
- reduction in red blood cells (red blood cells; [8]): 45%
- red blood cells (red blood cells; [7]): 5.94
- red blood cells (red blood cells; [9]): 4.23
- red blood cells (red blood cells; [10]): 3.80
- red blood cells (red blood cells; [5]): 3.22
- red blood cells (red blood cells; [6]): 6.51
- weight: Variation between D + 1 and D + 21 ([2]; chemotherapy agent alone): −14.9
- weight of the animals [2, 7]: 167.2
- weight of the animals [2, 9]: 157.7
- weight of the animals [2, 10]: 164
- weight of the animals [2, 5]: 152.3
- weight of the animals [2, 6]: 160.4
- plasma MDA: Variation between D − 5 and D + 21 (plasma MDA; chemotherapy agent alone): +48%
- plasma MDA (plasma MDA; [5]): 79.10
- plasma MDA (plasma MDA; [6]): 43.78
- white blood cells: Variation between D − 5 and D + 21 (white blood cells; chemotherapy agent alone): −49%
- white blood cells (white blood cells; [7]): 3.33
- white blood cells (white blood cells; [9]): 2.96
- white blood cells (white blood cells; [10]): 10.20
- white blood cells (white blood cells; [5]): 3.19
- white blood cells (white blood cells; [6]): 6.30

SMILES: COc1cccc2c1C(=O)c1c(O)c3c(c(O)c1C2=O)C[C@@](O)(C(=O)CO)C[C@@H]3O[C@H]1C[C@H](N)[C@@H](O)[C@H](C)O1 [Epirubicin, epirubicin]
- effect on the level of plasma GSH (in words) ([1]; rat, in vivo): very distinct significant decrease in the level of plasma GSH
- plasmatic glutathione ([1]; rat, in vivo): 23.86
- plasmatic glutathione: Variation between D − 5 and D + 21 ([1]; rat, in vivo): −46%
- plasmatic creatinine: Variation between D − 5 and D + 21 (plasmatic creatinine; rat, in vivo): +60%
- red blood cells (red blood cells; rat, in vivo): 6.73 10^6/µL
- red blood cells: Variation between D + 1 and D + 21 (red blood cells; rat, in vivo): −48%
- reduction in red blood cells (red blood cells; rat, in vivo): 48%
- weight of the animals ([2]; rat, in vivo): 150.2
- weight: Variation between D + 1 and D + 21 ([2]; rat, in vivo): −0.9
- plasma MDA (plasma MDA; rat, in vivo): 46.61
- plasma MDA: Variation between D − 5 and D + 21 (plasma MDA; rat, in vivo): +83%
- white blood cells (white blood cells; rat, in vivo): 6.79
- white blood cells: Variation between D − 5 and D + 21 (white blood cells; rat, in vivo): −46%

SMILES: O=c1[nH]cc(F)c(=O)[nH]1 [Powder 5-FU, 5-FU]
- plasmatic glutathione: Variation between D − 5 and D + 21 ([1]; chemotherapy agent alone): −20%
- effect on the level of plasma GSH (in words) [1, 4]: very distinct significant decrease in the level of plasma GSH
- plasmatic glutathione [1, 5]: 17.65
- plasmatic glutathione [1, 6]: 22.14
- plasmatic creatinine: Variation between D − 5 and D + 21 (plasmatic creatinine; chemotherapy agent alone): +41%
- plasmatic creatinine (plasmatic creatinine; [7]): 9
- plasmatic creatinine (plasmatic creatinine; [5]): 10.19
- plasmatic creatinine (plasmatic creatinine; [6]): 7.25
- red blood cells: Variation between D + 1 and D + 21 (red blood cells; chemotherapy agent alone): −55%
- reduction in red blood cells (red blood cells; [8]): 55%
- red blood cells (red blood cells; [7]): 6.56
- red blood cells (red blood cells; [9]): 4.19
- red blood cells (red blood cells; [10]): 3.05
- red blood cells (red blood cells; [5]): 2.94
- red blood cells (red blood cells; [6]): 6.51
- weight: Variation between D + 1 and D + 21 ([2]; chemotherapy agent alone): −13.9
- weight of the animals [2, 7]: 157.6
- weight of the animals [2, 9]: 153.7
- weight of the animals [2, 10]: 147.9
- weight of the animals [2, 5]: 143.7
- weight of the animals [2, 6]: 153.5
- plasma MDA: Variation between D − 5 and D + 21 (plasma MDA; chemotherapy agent alone): +41%
- plasma MDA (plasma MDA; [5]): 62.85
- plasma MDA (plasma MDA; [6]): 44.49
- white blood cells: Variation between D − 5 and D + 21 (white blood cells; chemotherapy agent alone): −40%
- white blood cells (white blood cells; [7]): 3.91
- white blood cells (white blood cells; [9]): 2.74
- white blood cells (white blood cells; [10]): 10.82
- white blood cells (white blood cells; [5]): 3.86
- white blood cells (white blood cells; [6]): 6.49

SMILES: CC/C(=C(\c1ccccc1)c1ccc(OCCN(C)C)cc1)c1ccccc1 [Tamoxifen, tamoxifen]
- cytolysis of hepatocytes (in words) [3]: dose-dependent cytolysis of hepatocytes

SMILES: CC(=O)O[C@@]12CO[C@@H]1C[C@H](O)[C@@]1(C)C(=O)[C@H](O)C3=C(C)[C@@H](OC(=O)[C@H](O)[C@@H](NC(=O)OC(C)(C)C)c4ccccc4)C[C@@](O)([C@@H](OC(=O)c4ccccc4)[C@H]21)C3(C)C [Taxotere, taxotere]
- effect on the level of plasma GSH (in words) ([1]; rat, in vivo): very distinct significant decrease in the level of plasma GSH
- plasmatic glutathione ([1]; rat, in vivo): 22.88
- plasmatic glutathione: Variation between D − 5 and D + 21 ([1]; rat, in vivo): −26%
- plasmatic creatinine (plasmatic creatinine; rat, in vivo): 7.60
- plasmatic creatinine: Variation between D − 5 and D + 21 (plasmatic creatinine; rat, in vivo): +52%
- red blood cells (red blood cells; rat, in vivo): 6.39 10^6/µL
- red blood cells: Variation between D + 1 and D + 21 (red blood cells; rat, in vivo): −52%
- reduction in red blood cells (red blood cells; rat, in vivo): 52%
- weight of the animals ([2]; rat, in vivo): 151.6
- weight: Variation between D + 1 and D + 21 ([2]; rat, in vivo): +18.6
- plasma MDA (plasma MDA; rat, in vivo): 45.90
- plasma MDA: Variation between D − 5 and D + 21 (plasma MDA; rat, in vivo): +88%
- white blood cells (white blood cells; rat, in vivo): 6.44
- white blood cells: Variation between D − 5 and D + 21 (white blood cells; rat, in vivo): −51%
